Assay results from ChEMBL document CHEMBL1201862, “PubChem BioAssay data set” (2004).
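These data come from cells grown in 96-well plates and exposed to compound for 48 hours at five concentrations. Here, GI50 denotes the concentration required for 50% inhibition of growth.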 Active and inactive are the calls of the source. Rule as the data show it: active = GI50 up to about 1.1 µM and inactive = higher.

Experiments:
Assay in all cases: growth of human tumour cells (NCI), 48 h
[1] = test system: A549
[2] = test system: NCI-H460
[3] = test system: SF-268
[4] = test system: SF-539
[5] = test system: OVCAR-5
[6] = test system: NCI-H226
[7] = test system: LOX IMVI
[8] = test system: SNB-19
[9] = test system: M19-MEL
[10] = test system: HL-60
[11] = test system: SNB-75
[12] = test system: SK-MEL-5
[13] = test system: HCT-116
[14] = test system: UACC-257
[15] = test system: CAKI-1

Measured: GI50

Cc1ccc(S(=O)(=O)n2c(-c3ccccc3)c(-c3ccccc3)c3ccccc32)cc1
inactive: [1] > 100 µM | [2] > 100 µM | [3] > 100 µM | [4] > 100 µM | [5] > 100 µM | [6] > 100 µM | [7] > 100 µM | [8] > 100 µM | [9] > 100 µM | [10] > 100 µM | [11] > 100 µM | [12] 20.3 µM | [13] > 100 µM | [14] > 100 µM

CC(=O)OCC12CC(CC1OC(C)=O)c1ccccc12 (configuration not stated)
inactive: [1] > 100 µM | [2] > 100 µM | [3] > 100 µM | [5] > 100 µM | [6] > 100 µM | [7] > 100 µM | [8] > 100 µM | [9] > 100 µM | [10] > 100 µM | [15] > 100 µM | [12] > 100 µM | [13] > 100 µM | [14] > 100 µM

S=c1sc2c(Cl)ncnc2n1-c1ccccc1
inactive: [1] 28.8 µM | [2] 15.7 µM | [3] 5.05 µM | [4] 16.3 µM | [5] 22.9 µM | [6] 13.4 µM | [7] 4.28 µM | [8] 18.2 µM | [9] 3.8 µM | [11] 14 µM | [15] 4.88 µM | [12] 16.1 µM | [13] 5.66 µM | [14] 15.5 µM

CCCC(=O)c1c(NOC2OC(COC(C)=O)C(OC(C)=O)C(OC(C)=O)C2OC(C)=O)nc(OC)n(C)c1=O (configuration not stated)
inactive: [1] > 100 µM | [2] > 100 µM | [3] > 100 µM | [4] > 100 µM | [5] > 100 µM | [6] > 100 µM | [7] > 100 µM | [8] > 100 µM | [9] > 100 µM | [11] > 100 µM | [12] > 100 µM | [13] > 100 µM

Cc1cc2c(c(C#N)c1C)NC(=O)CCC2=O
inactive: [1] > 100 µM | [2] > 100 µM | [4] > 100 µM | [9] > 100 µM | [10] > 100 µM | [11] > 100 µM | [15] > 100 µM | [13] > 100 µM | [14] > 100 µM

Cc1ccc(S(=O)(=O)OCC23CCC(C4CC42)C2CC23)cc1 (configuration not stated)
inactive: [1] 80.4 µM | [2] 88.1 µM | [3] 67.9 µM | [5] > 100 µM | [6] 95.7 µM | [7] > 100 µM | [8] > 100 µM | [9] 60.7 µM | [10] 17.7 µM | [15] > 100 µM | [12] 31.6 µM | [13] 87.7 µM | [14] 7.01 µM

COc1ccc(-c2cc(-c3ccco3)c(C#N)c(=O)n2C2OC(OC(=O)c3ccccc3)C(OC(=O)c3ccccc3)C2OC(=O)c2ccccc2)cc1 (configuration not stated)
inactive: [2] > 100 µM | [3] > 10 µM | [4] > 100 µM | [5] > 100 µM | [6] > 100 µM | [7] > 100 µM | [8] 62.5 µM | [9] > 100 µM | [11] 72.1 µM | [15] > 100 µM | [12] > 100 µM | [13] 40.2 µM | [14] > 100 µM

CCOC(=O)C(C(=O)c1ccccc1-c1ccccc1C(=O)O)=P(c1ccccc1)(c1ccccc1)c1ccccc1
inactive: [1] 17.8 µM | [2] 16.5 µM | [3] 41.6 µM | [4] 18.9 µM | [6] 24.4 µM | [7] 20.3 µM | [8] 25.8 µM | [9] 27.8 µM | [10] 19.8 µM | [11] 12.8 µM | [12] 15.5 µM | [13] 18.7 µM | [14] 25.5 µM

C[C@@H]1C[C@@H]2C(=O)N(c3ccccc3)C(=O)[C@@H]2c2[nH]c3ccc(Br)cc3c21
inactive: [1] 33.6 µM | [2] 42.3 µM | [3] 41.5 µM | [4] 65.8 µM | [5] > 100 µM | [7] 96.8 µM | [8] 29.6 µM | [9] 70.8 µM | [10] 26.8 µM | [11] 20.2 µM | [15] 27.4 µM | [12] 50.1 µM | [13] 30.2 µM | [14] > 100 µM

C=CC1(C(=O)O)CCC(C(C)(C)C)CC1 (configuration not stated)
inactive: [1] > 100 µM | [2] > 100 µM | [3] > 100 µM | [4] > 100 µM | [5] > 100 µM | [6] > 100 µM | [8] > 100 µM | [9] > 100 µM | [10] > 100 µM | [11] > 100 µM | [15] > 100 µM | [12] > 100 µM | [13] > 100 µM | [14] > 100 µM

C[C@@H]1CC[C@@]2(C)OC(c3ccccc3)[C@H](CO)N2C1=O (some centres not stated)
inactive: [1] > 100 µM | [2] > 100 µM | [3] > 100 µM | [4] > 100 µM | [5] > 100 µM | [7] > 100 µM | [8] > 100 µM | [9] > 100 µM | [11] > 100 µM | [15] > 100 µM | [12] > 100 µM | [13] > 100 µM | [14] > 100 µM
